Data as given in patent US11840530B2, “Selective EP4 receptor antagonistic substance for treatment of cancer” (AskAt Inc., priority 2009, dated 2023).

Key:
[1] = system: breast cancer cells; conditions: non-patent literature 5; cited from earlier work
[2] = system: gastric tumor of K19-Wnt1/C2mE mice; test: Spontaneous gastric cancer model mice, tumor size by X-ray CT; format: in vivo, mouse; conditions: for sizes of tumors by X-ray CT (relative mean tumor area, FIG. 3): per os 3 mg/kg and 30 mg/kg once a day for five weeks, vs vehicle
Description: Among human gastric cancer patients, Wnt up-regulation is observed in 30% to 50%, and induction of COX-2 is observed in more than 70%. Therefore, the K19-Wnt1/C2mE is positioned as a mouse model which extrapolates human gastric cancer in terms of molecular mechanism (Nature Review Cancer, Volume 7, Pages 645-658, 2007).
The experiment was conducted using five spontaneous gastric cancer model mice at 50 weeks old (K19-Wnt1/C2mE mice). The mice develop large tumors in stomach at 50 weeks old, and the size of tumor can be measured with X-ray CT. The sizes of tumors were measured with X-ray CT before administration and at week 1, week 2, and week 3 after administration, and the sizes of tumors were compared. Compound A was continuously administered at a dose of 100 mg/kg twice a day for three weeks. A methyl cellulose was used as a vehicle.
Experiment was conducted using six gastric cancer model mice at 46 to 68 weeks old (K19-Wnt1/C2mE mice). Compound B was continuously administered per os at a dose of 3 mg/kg (n=2), 30 mg/kg (n=2) and vehicle control (n=2) once a day for five weeks. The measurements of tumor sizes were conducted in the same manner as example 1. It was confirmed by X-ray CT scanning that the sizes of tumors increased in a time-dependent manner during test period in two vehicle controls. […] In the FIG. 3, a relative value of the mean tumor area after treatment to that before treatment (0 w) set to 100 is shown with time. Solid square (▪) and solid diamond (♦) represent control model mice. Dotted triangle (▴) and dotted cross (X) represent model mice each administered compound B at a dose of 3 mg/kg. Solid star (*) and solid circle (●) represent model mice each administered compound B at a dose of 30 mg/kg.

[3] = system: colon26 (cell line derived from mouse colon cancer); test: colon26 subcutaneously implanted to CD2F1 mice, tumor weight; format: in vivo; conditions: vs vehicle
Description: A cell line derived from mouse colon cancer, colon26, was subcutaneously implanted to CD2F1 mice. (According to the method described in Int. J. Cancer, Volume 121, Pages 878-883, 2007, this model extrapolates the colon cancer development and growth in terms of molecular mechanism.) When the mean tumor weight reached 100 mg, vehicle (n=10), compound B once a day at a dose of 30 mg/kg (n=10), or compound C twice a day at a dose of 200 mg/kg (n=10) was administered for 20 days. The tumor weight was calculated as (major axis)×(minor axis)^2×0.5 using the measured values. […] In FIG. 4, solid square (▪), solid triangle (▴), and solid circle (●) represent a group administered vehicle (control), a group administered compound B, and a group administered compound C, respectively.

[4] = system: LL/2 (cell line derived from mouse lung cancer); test: LL/2 subcutaneously implanted to C57BL/6 mice, tumor weight; format: in vivo; conditions: vs vehicle
Description: A cell line derived from mouse lung cancer, LL/2, was subcutaneously implanted to C57BL/6 mice. (According to the method described in Cancer Research. Volume 58, Pages 2583-2587, 1998, this model extrapolates the lung cancer development and growth.) When the mean tumor weight reached 100 mg, vehicle (n=10), compound B once a day at a dose of 0.3 mg/kg (n=10), or compound C twice a day at a dose of 10 mg/kg (n=10) was administered for 25 days. The tumor weight was calculated as (major axis)×(minor axis)^2×0.5 using the measured values. […] In FIG. 5, solid square (▪), solid triangle (▴), and solid circle (●) represent a group administered vehicle (control), a group administered compound B, and a group administered compound C, respectively.

[5] = system: colon cancer cell (HCA-7); conditions: non-patent literature 4; cited from earlier work
[6] = system: intestinal polyp in APC gene knockout mice; conditions: non-patent literature 6; cited from earlier work
[7] = system: azoxymethane-induced colon aberrant crypt foci; conditions: non-patent literature 6; cited from earlier work

Which “metastasis of breast cancer cells” value [1] does the source give for `O=C(O)CC/C=C\CC[C@H]1[C@H](N2CCOCC2)C(=O)C[C@H]1OCc1ccc(-c2ccccc2)cc1` [AH23848] here?
The value was “metastasis suppression”.

For `C[C@H](NC(=O)c1cc(Cl)ccc1Oc1ccc(F)cc1)c1ccc(C(=O)O)cc1` [Compound A, 4-((1S)-1-{[5-chloro-2-(4-fluorophenoxy)benzoyl]amino}ethyl)benzoic Acid], which “histological analysis of excised tissues after the treatment” value ([2]; 100 mg/kg twice a day for three weeks, visual observation) is on record?
The value was “disappearance of irregular glandular branching in tumor epithelium”.

And the “relative tumor volume compared with untreated mice (FIG. 2)” value ([2]; 100 mg/kg twice a day for three weeks, vs 55 to 60 week old untreated K19-Wnt1/C2mE mice (n=7))?
The value was “tumor was shrunk effectively”.

And the “tumor mass in CT images at three weeks post-administration” value ([2]; 100 mg/kg twice a day, all the five mice)?
The value was “tumor mass almost completely disappeared”.

And the “tumor size in the first week (X-ray CT)” value ([2]; 100 mg/kg twice a day, two individuals with particularly large tumor before administration)?
The value was “remarkable reductions of the tumor size”.

Which results are given for `C[C@H](NC(=O)c1cc(Cl)cnc1Oc1cccc(F)c1)c1ccc(C(=O)O)cc1` [Compound B]?
tumor size (calculated tumor weight, FIG. 4) ([3]; 30 mg/kg once a day for 20 days): Remarkable reductions of tumor size; tumor size (calculated tumor weight, FIG. 5) ([4]; 0.3 mg/kg once a day for 25 days): Remarkable reductions of tumor size; sizes of tumors by X-ray CT (relative mean tumor area, FIG. 3) [2]: reduced in a dose-dependent manner; tumor size by X-ray CT at a dose of 3 mg/kg ([2]; per os 3 mg/kg once a day for five weeks): effective reduction of tumor size; tumor lesions in autopsy ([2]; per os once a day for five weeks, compared with vehicle control group): remarkable shrinkages of tumor lesions

What does the source list for `CCc1nc2c(C)nc(C)cc2n1-c1ccc(CCNC(=O)NS(=O)(=O)c2ccc(C)cc2)cc1` [Compound C, 3-[2-(4-{2-ethyl-4,6-dimethyl-1H-imidazo[4,5-c]pyridin-1-yl}phenyl)ethyl]-1-[(4-methylbenzene)sulfonyl]urea]?
tumor size (calculated tumor weight, FIG. 4) ([3]; 200 mg/kg twice a day for 20 days): Remarkable reductions of tumor size; tumor size (calculated tumor weight, FIG. 5) ([4]; 10 mg/kg twice a day for 25 days): Remarkable reductions of tumor size; sizes of tumors by X-ray CT (relative mean tumor area, FIG. 3) [2]: tumor size dramatically reduced

For `CCCCc1nn(-c2ccccc2C(F)(F)F)c(=O)n1Cc1ccc(-c2ccccc2S(=O)(=O)NC(=O)c2sccc2C)cc1` [L-161,982], which “growth of colon cancer cell” value [5] is on record?
Its value is “growth inhibition”.

With `CC(C(=O)Nc1ccccc1Cc1ccccc1C(=O)O)c1cccc2ccccc12` (centres unmarked) [ONO-AE2-227] as the molecule, how does the “formation of intestinal polyp” value [6] read?
The value was “reduced formation of intestinal polyp”.

What about the “formation of azoxymethane-induced colon aberrant crypt foci” value [7] of the same molecule?
Its value is “reduced formation”.

Which “metastasis of breast cancer cells” value [1] does the source give for `CC(C(=O)Nc1cc(C#N)ccc1CCCC(=O)O)c1ccc(F)c2ccccc12` (centres unmarked) [ONO-AE3-208] here?
Its value is “metastasis suppression”.
